“Also recorded” adds a separate entry of the source. Counter-ions that a name gives are not always drawn.

The nature of data set [1]: In vitro diffusion (permeation and accumulation) studies through human skin, PermeGear flow through diffusion apparatus.
A short description of data set [2]: Solubility in the pressure sensitive adhesive matrix. In kind it is physicochemical. As to conditions: Durotak Elite 87-900A PSA. The procedure: Thus, the suspension was mixed and poured to 20 mil thickness.
Thus, the suspension and 3 solutions of NTX prodrugs were mixed and poured to 20 mil thickness.
Three patch formulations for testing were prepared. The patch formulations included naltrexone-HCl, naltrexone-HCl coated with cellulose acetate phthalate and an isobutyryl ester prodrug of naltrexone. The naltrexone-HCl and cellulose acetate phthalate complex was prepared using the methods described in Example 2. The patch formulations also included buprenorphine in a concentration of 2% w/w or 20 mg of buprenorphine per […] of pressure sensitive adhesive. […] The PSA admixture was poured onto Scotch PAK 1022 Release Liner 3.0 mil 3M™, spread to an even 20 mil thickness with an 8 path wet film applicator by Gardco®. The matrices were allowed to dry at 40° C. and finally the Cotran 9715 Film 3M™ as a backing membrane was applied.

The nature of data set [3]: Release of buprenorphine and naltrexone from patch placed in methanol or ethanol. It is filed as physicochemical. The note with it: patch with 2% buprenorphine. The source says:
Methanol and ethanol are two media that could potentially be used to dissolve a patch for the purpose of extracting the opiate in the patch by a potential abuse. Thus, an antagonist complex such as NTX-CAP should release in a rapid manner in order to be able to block the opiates effect if injected or ingested. FIG. 6 is a representative profile of the release characteristics of naltrexone coated with cellulose acetate phthalate in methanol and ethanol.
This ratio corresponds to the amount of naltrexone necessary to cause a narcotic blockade at the opiate receptors.

[4] abbreviates: Example 7, NTX-CAP and buprenorphine base bi-layer patch.
Where [5] appears, read: Example 7, NTX•HCl and buprenorphine base bi-layer patch.
The mark [6] stands for this setting: Example 7, NTX•HCl and buprenorphine base bi-layer patch, 24 h.
[7] abbreviates: Example 7, NTX•HCl and buprenorphine base bi-layer patch, after 24 h.
Setting [8] is: Example 8, NTX-CAP and buprenorphine base bi-layer patch.
The mark [9] stands for this setting: Example 8, NTX•HCl and buprenorphine base bi-layer patch, 24 h.
[10] abbreviates: Example 8, NTX•HCl and buprenorphine base bi-layer patch, after 24 h.
[11] abbreviates: Example 8, NTX•HCl and buprenorphine bi-layer patch, n=1.

Regarding `CO[C@@]12CC[C@@]3(C[C@@H]1[C@](C)(O)C(C)(C)C)[C@H]1Cc4ccc(O)c5c4[C@@]3(CCN1CC1CC1)[C@H]2O5` [BUP from bi-layer, buprenorphine], the Flux in data set [1] (setting [4]) is listed as 0.39 ± 0.05 nmol/cm^2/h; in data set [1] (setting [5]) it was 0.23 ± 0.06 nmol/cm^2/h; in data set [1] (setting [8]), 1.05 ± 0.65 nmol/cm^2/h; in data set [1] (setting [11]), 0.6 NA* nmol/cm^2/h. For the same molecule, the Lag time in data set [1] (setting [4]) worked out at 10.6 ± 0.28 h; in data set [1] (setting [5]), 10.0 ± 2.6 h; in data set [1] (setting [8]), 8.2 ± 0.6 h; in data set [1] (setting [11]), 9.5 h. Besides, the Cumulative in data set [1] (Example 7, NTX-CAP and buprenorphine base bi-layer patch, 24 h) is 9.3 ± 1.2 nmol; in data set [1] (setting [6]), 5.5 ± 0.7 nmol; in data set [1] (setting [8]) it was 24.6 ± 10.8 nmol; in data set [1] (setting [9]), 18.5 nmol. Further, the Drug in skin was determined as 0.43 ± 0.01 µmol/g in data set [1] (Example 7, NTX-CAP and buprenorphine base bi-layer patch, after 24 h); 0.35 ± 0.01 µmol/g in data set [1] (setting [7]); 0.50 ± 0.04 µmol/g in data set [1] (setting [8]); 0.37 µmol/g in data set [1] (setting [10]). Moreover, the “buprenorphine flux, times higher than naltrexone” value in data set [1] (setting [5]) is listed as 11.2 times. In data set [1] (setting [8]), this molecule came in with a total permeation of 11.65 µg. Besides, the “solubility in pressure sensitive adhesive (matrix)” value (shortened to “solubility”) in data set [2] is listed as “freely soluble”.

Consider `O=C1CC[C@@]2(O)[C@H]3Cc4ccc(O)c5c4[C@@]2(CCN3CC2CC2)[C@H]1O5` [NTX•HCl, naltrexone hydrochloride], for which the “Release ratio of BUP:NTX” value in data set [3] (ethanol, 0 min) is on record as 9.9; in data set [3] (ethanol, 10 min), 7.2; in data set [3] (ethanol, 30 min), 4.6; in data set [3] (ethanol, 60 min) it was 4.1; in data set [3] (methanol, 0 min), 7.8; in data set [3] (methanol, 10 min), 6.5. The “Release ratio of BUP:NTX” value is 6.5 in data set [3] (methanol, 30 min) and 6.1 in data set [3] (methanol, 60 min). The Flux in data set [1] (setting [5]) amounted to 0.02 ± 0.03 nmol/cm^2/h; in data set [1] (setting [11]), 0.0 NA* nmol/cm^2/h. In data set [1] (setting [5]), this molecule gave a Lag time of 14.6 NA* h. For the same molecule, the Cumulative in data set [1] (Example 7, NTX•HCl and buprenorphine base bi-layer patch, 24 h, listed as NTX•HCl from bi-layer, hydrochloride) turned out to be 0.3 ± 0.5 nmol; in data set [1] (Example 8, NTX•HCl and buprenorphine base bi-layer patch, 24 h, listed as NTX•HCl from bi-layer, hydrochloride), 2.3 nmol. Besides, the Drug in skin was 0.29 ± 0.03 µmol/g in data set [1] (setting [7]) and 0.30 µmol/g in data set [1] (setting [10]). Further, the “solubility” value in data set [2] (hydrochloride) is “Neither NTX.HCl nor CAP-NTX were soluble; also recorded: not soluble”; in data set [2] (listed as naltrexone-HCl, hydrochloride), “suspensions”.

On to `O=C1CC[C@@]2(O)[C@H]3Cc4ccc(O)c5c4[C@@]2(CCN3CC2CC2)[C@H]1O5` [naltrexone], for which the Cumulative in data set [1] (Example 6, bi-layer patch with NTX only, 24 hours) worked out at 7.3 nmol; in data set [1] (setting [6]), 0.3 nmol; in data set [1] (setting [9]), 2.3 nmol. Further, in data set [2], the “solubility” value is “not soluble”.

The values above are taken from US20090246265A1, “ABUSE DETERRENT TRANSDERMAL FORMULATIONS OF OPIATE AGONISTS AND AGONIST-ANTAGONISTS” (AllTranz Inc., priority 2008, published 2009).
